4 compounds from patent US8986696B2, “Trans-capsular administration of p38 map kinase inhibitors into orthopedic joints” (DePuy Mitek, Inc., priority 2007, dated 2015) can be followed below.

The nature of one data set: solubility. Type of data set: physicochemical.
A further data set deals with chondrocytes. Type of data set: cell-based. Summed up: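 Bovine chondrocyte pellets (calf articular cartilage, or alginate-recovered chondrocyte tissue punches) pretreated with compounds 1 h at 37 °C, then incubated 3-5 days with or without 10 ng/ml IL-1β, DMSO ≤1%. Media LDH activity measured colorimetrically via lactate-to-pyruvate conversion reducing INT tetrazolium to formazan.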

Data set [1] has as its system rabbit anterior cruciate ligament transection (ACLT) model of osteoarthritis. The data set is described as follows: ACLT model, therapeutic dosing regimen (Example IX). Type of data set: in vivo. Particulars: for Trochlear Groove Erosion of Cartilage / Tibial Plateau Presence of Clefts (Lateral) / Tibial Plateau Presence of Clefts (Medial) / Trochlear Groove Thickening / Femoral Condyle Presence of Clefts / Femoral Condyle % Surface Area Erosion (Lateral) / Femoral Condyle % Surface Area Erosion (Medial) / Tibial Plateau % Surface Area Erosion (Lateral) / Tibial Plateau % Surface Area Erosion (Medial) / Tibial Plateau # of Osteophytes (Lateral) / Tibial Plateau # of Osteophytes (Medial) / Trochlear Groove # of Osteophytes / Trochlear Groove Osteophyte Size / Femoral Condyle Depth of Erosion (Lateral) / Femoral Condyle Depth of Erosion (Medial) / Tibial Plateau Depth of Erosion (Lateral) / Tibial Plateau Depth of Erosion (Medial) / Combination Scores: All Trochlear Groove Effects / Combination Scores: All Condylar Effects / Combination Scores: All Tibial Plateau Effects / Combination Scores: All Cartilage Effects / Combination Scores: Total Score: Therapeutic Dosing Regimen; for Trochlear Groove Erosion of Cartilage / Tibial Plateau Presence of Clefts (Lateral) / Tibial Plateau Presence of Clefts (Medial) / Trochlear Groove Thickening / Femoral Condyle Presence of Clefts / Femoral Condyle % Surface Area Erosion (Lateral) / Femoral Condyle % Surface Area Erosion (Medial) / Tibial Plateau % Surface Area Erosion (Lateral) / Tibial Plateau % Surface Area Erosion (Medial) / Tibial Plateau # of Osteophytes (Lateral) / Tibial Plateau # of Osteophytes (Medial) / Trochlear Groove # of Osteophytes / Trochlear Groove Osteophyte Size / Femoral Condyle Depth of Erosion (Lateral) / Femoral Condyle Depth of Erosion (Medial) / Tibial Plateau Depth of Erosion (Lateral) / Tibial Plateau Depth of Erosion (Medial): mean gross score; for Trochlear Groove Erosion of Cartilage: 0 = 0, 1 < 25%, 2 = 25-50%, 3 > 50%; for Tibial Plateau Presence of Clefts (Lateral) / Tibial Plateau Presence of Clefts (Medial): 0 = Absent, 1 = Present; for Trochlear Groove Thickening: 0 = Normal, 1 = Thickened Areas; for Femoral Condyle Presence of Clefts: 0 = absent, 1 = unicondylar, 2 = both condyles; for Femoral Condyle % Surface Area Erosion (Lateral) / Femoral Condyle % Surface Area Erosion (Medial) / Tibial Plateau % Surface Area Erosion (Lateral) / Tibial Plateau % Surface Area Erosion (Medial): scale 0-5; for Tibial Plateau # of Osteophytes (Lateral) / Tibial Plateau # of Osteophytes (Medial) / Trochlear Groove # of Osteophytes / Trochlear Groove Osteophyte Size: scale 0 = 0; for Tibial Plateau # of Osteophytes (Lateral) / Tibial Plateau # of Osteophytes (Medial) / Trochlear Groove # of Osteophytes: 1 = 1, 2 = 2, 3 ≧ 2; for Trochlear Groove Osteophyte Size: 1 ≦ 1 mm, 2 = 1-2 mm, 3 > 2 mm; for Femoral Condyle Depth of Erosion (Lateral) / Femoral Condyle Depth of Erosion (Medial) / Tibial Plateau Depth of Erosion (Lateral) / Tibial Plateau Depth of Erosion (Medial): scale 0 = no damage to 3 = severe; for Combination Scores: All Trochlear Groove Effects / Combination Scores: All Condylar Effects / Combination Scores: All Tibial Plateau Effects / Combination Scores: All Cartilage Effects / Combination Scores: Total Score: mean; for Combination Scores: All Trochlear Groove Effects: 0-10, 10 = max damage; for Combination Scores: All Condylar Effects: 0-18, 18 = max damage; for Combination Scores: All Tibial Plateau Effects: 0-24, 24 = max damage; for Combination Scores: All Cartilage Effects: 0-40, 40 = max damage; for Combination Scores: Total Score: 0-52, 52 = max damage. The procedure: 130 Female New Zealand white rabbits underwent ACLT on the right knee. Intra-articular injections were administered to the operated knee once per week for five weeks beginning either one or six weeks after the ACLT. All animals were euthanized one week after the administration of the fifth injection. Gross observations were made on the knee joints according to a predetermined grading scale. The stifle joints were removed. Samples were preserved in 10% neutral buffered formalin. The stifle joints were photographed using high-resolution photography.
The ACLT was performed according to the ACLT model discussed above. Animals were group housed in pens on the floor and left untreated for six weeks to allow osteoarthritis to develop. Then, once weekly for five weeks, intra-articular injections were administered. One week following the last injection, the animals were sacrificed. The total in-life portion of this regimen was eleven weeks post-ACLT.
The study design consisted of an n=10 per group. A total of 160 μl was injected at each administration.
At the time of sacrifice the following parameters were evaluated grossly (the scale follows in parenthesis):
Each parameter was given a score. The combination of all parameters gave a Total Score (0-52). Additionally, combinations of the three subsets of data yielded scores for All Trochlear Groove Effects (0-10), All Condylar Effects (0-18) and All Tibial Plateau Effects (0-24). Lastly, an […] was obtained. The score for […] ranges from 0 to 40. The grades that compose this parameter are trochlear groove thickness and erosion, all the grades in All Condylar Effects, and all grades listed under Tibial Plateau. A higher score indicates more damage to the joint. A lower score indicates less damage or more cartilage preservation in the joint. Individual results for each parameter assessed were tabulated.

Data set [2] is classed as physicochemical. The procedure: JNJ 3026582 (RWJ 67657) was gamma irradiated on dry ice at a dose of 15 kgray. Then the sterile drug was aseptically mixed with ORTHOVISC® in the concentrations of 10 μg/mL and 100 μg/mL. Drug content uniformity was confirmed by reverse phase HPLC. There was approximately 100% drug stability.
JNJ 17089540 (RWJ 669307) was gamma irradiated on dry ice at a dose of 15 kgray. The sterile drug as aseptically mixed with ORTHOVISC® in the concentrations of 1 ug/uL and 10 ug/uL. Drug content uniformity was confirmed by reverse phase HPLC. There was approximately 100% drug stability.
Suprofen was gamma irradiated on dry ice at dose of 15 kgray. The sterile drug was aseptically mixed with ORTHOVISC® in the concentration of 1.3 ug/uL. Drug content uniformity at time of preparation and stability of 4 months at 4° C. was confirmed by reverse phase HPLC that there was around 100% drug stability.

Where [3] appears, read: within the tested concentrations.

Where two headings read alike, the source gives them in different places.

As to `OCCC#Cc1nc(-c2ccc(F)cc2)c(-c2ccncc2)n1CCCc1ccccc1` [JNJ 3026582 (RWJ 67657), 4-[4-(4-fluorophenyl)-1-(3-phenylpropyl)-5-(4-pyridinyl)-1H-imidazol-2-yl]-3-butyn-1-ol], in the data set “solubility”, the “water solubility” value is on record as “poor water solubility”. In addition, the “pH at which soluble” value in “solubility” (soluble at pH<2) is less than 2. Also, the “cytotoxicity to chondrocytes (LDH, words)” value (from here on “cytotoxicity to chondrocytes”) with chondrocytes (setting [3]) is reported as “little cytoxicity”. Also, in data set [1], the “Trochlear Groove Erosion of Cartilage” value turned out to be 1.9, the “Tibial Plateau Presence of Clefts (Lateral)” value is given as 0, the “Tibial Plateau Presence of Clefts (Medial)” value was found to be 0 and the “Trochlear Groove Thickening” value is reported as 0.3. In addition, in data set [1], the “Femoral Condyle Presence of Clefts” value is recorded as 0, the “Femoral Condyle % Surface Area Erosion (Lateral)” value turned out to be 2.4, the “Femoral Condyle % Surface Area Erosion (Medial)” value was determined as 0.7 and the “Tibial Plateau % Surface Area Erosion (Lateral)” value is 1.3. In data set [1], the “Tibial Plateau % Surface Area Erosion (Medial)” value came to 0.4, the “Tibial Plateau # of Osteophytes (Lateral)” value (shortened to “Tibial Plateau # … (Lateral)”) was 0.9, the “Tibial Plateau # of Osteophytes (Medial)” value worked out at 1.4 and the “Trochlear Groove # of Osteophytes” value was found to be 2.9. Moreover, in data set [1], the “Trochlear Groove Osteophyte Size” value came out at 2.9, the “Femoral Condyle Depth of Erosion (Lateral)” value amounted to 1.7, the “Femoral Condyle Depth of Erosion (Medial)” value was found to be 0.8 and the “Tibial Plateau Depth of Erosion (Lateral)” value is 0.9. In addition, in data set [1], the “Tibial Plateau Depth of Erosion (Medial)” value was 0.2, the “Combination Scores: All Trochlear Groove Effects” value is 8.0, the “Combination Scores: All Condylar Effects” value was 5.6 and the “Combination Scores: All Tibial Plateau Effects” value worked out at 5.3. In addition, in data set [1], the “Combination Scores: All Cartilage Effects” value came out at 10.8 and the “Combination Scores: Total Score” value came to 18.9. Besides, the drug stability result in data set [2] is on record as “approximately 100%”.

For the compound `C[C@H](Nc1nccc(-c2c(-c3ccc(F)cc3)nc3nc(N)ccn23)n1)c1ccccc1` [JNJ 7583979 (RWJ 351958)], in “solubility”, the “water solubility” value is “poor water solubility”. In addition, the “cytotoxicity to chondrocytes” value in the data set on chondrocytes (setting [3]) is on record as “little cytoxicity”.

With `CC(=O)N1CCN(c2c(-c3ccncc3)c(-c3ccc(F)cc3)c(C#N)n2C)CC1` [JNJ 17089540 (RWJ 669307)], in the data set “solubility” (HCl salt), the water solubility is more than 100 mg/mL. Further, in the data set on chondrocytes, the “cytotoxicity to chondrocytes” value is “little cytoxicity”. In data set [1], the “Trochlear Groove Erosion of Cartilage” value was found to be 1.6, the “Tibial Plateau Presence of Clefts (Lateral)” value was 0, the “Tibial Plateau Presence of Clefts (Medial)” value is on record as 0 and the “Trochlear Groove Thickening” value stood at 0. Further, in data set [1], the “Femoral Condyle Presence of Clefts” value came to 0, the “Femoral Condyle % Surface Area Erosion (Lateral)” value is listed as 1.1, the “Femoral Condyle % Surface Area Erosion (Medial)” value was determined as 0.4 and the “Tibial Plateau % Surface Area Erosion (Lateral)” value was 1.4. Further, in data set [1], the “Tibial Plateau % Surface Area Erosion (Medial)” value came out at 0, the “Tibial Plateau # … (Lateral)” value is reported as 0.7, the “Tibial Plateau # of Osteophytes (Medial)” value stood at 1.5 and the “Trochlear Groove # of Osteophytes” value turned out to be 3.0. In data set [1], the “Trochlear Groove Osteophyte Size” value was 3.0, the “Femoral Condyle Depth of Erosion (Lateral)” value amounted to 1.1, the “Femoral Condyle Depth of Erosion (Medial)” value worked out at 0.2 and the “Tibial Plateau Depth of Erosion (Lateral)” value stood at 1.2. Further, in data set [1], the “Tibial Plateau Depth of Erosion (Medial)” value turned out to be 0, the “Combination Scores: All Trochlear Groove Effects” value stood at 7.6, the “Combination Scores: All Condylar Effects” value amounted to 2.8 and the “Combination Scores: All Tibial Plateau Effects” value is given as 4.8. In addition, in data set [1], the “Combination Scores: All Cartilage Effects” value is on record as 7.0 and the “Combination Scores: Total Score” value stood at 15.2. Moreover, in data set [1] (therapeutic dosing regimen), the “All Cartilage Effects, mean score” value is 7.0+1.0; the “all condylar effects, mean score” value turned out to be 2.8 ± 0.6; the “depth of the erosion on the lateral femoral condyle, mean score” value came out at 1.1 ± 0.4; the “depth of the erosion on the medial femoral condyle, mean score” value came out at 0.2 ± 0.1. Besides, in data set [1] (therapeutic dosing regimen), the “percent surface area erosion of the lateral femoral condyle, mean score” value is on record as 1.1 ± 0.4; the “percent surface area erosion of the medial femoral condyle, mean score” value stood at 0.4 ± 0.2; the “total score, mean” value turned out to be 15.2 ± 1.2. For the same compound, the drug stability entry in data set [2] is recorded as “approximately 100%”.

Consider `CC(C(=O)O)c1ccc(C(=O)c2cccs2)cc1` (centres unmarked) [Suprofen, reference compound], for which, in data set [1], the “Trochlear Groove Erosion of Cartilage” value is listed as 1.9, the “Tibial Plateau Presence of Clefts (Lateral)” value turned out to be 0, the “Tibial Plateau Presence of Clefts (Medial)” value stood at 0 and the “Trochlear Groove Thickening” value is reported as 0. In data set [1], the “Femoral Condyle Presence of Clefts” value is listed as 0, the “Femoral Condyle % Surface Area Erosion (Lateral)” value was 1.3, the “Femoral Condyle % Surface Area Erosion (Medial)” value amounted to 0.3 and the “Tibial Plateau % Surface Area Erosion (Lateral)” value is recorded as 1.6. Moreover, in data set [1], the “Tibial Plateau % Surface Area Erosion (Medial)” value amounted to 0, the “Tibial Plateau # … (Lateral)” value came to 0.8, the “Tibial Plateau # of Osteophytes (Medial)” value turned out to be 1.6 and the “Trochlear Groove # of Osteophytes” value came to 3.0. Also, in data set [1], the “Trochlear Groove Osteophyte Size” value came to 3.0, the “Femoral Condyle Depth of Erosion (Lateral)” value is on record as 1.3, the “Femoral Condyle Depth of Erosion (Medial)” value was determined as 0.2 and the “Tibial Plateau Depth of Erosion (Lateral)” value worked out at 1.4. In addition, in data set [1], the “Tibial Plateau Depth of Erosion (Medial)” value was 0, the “Combination Scores: All Trochlear Groove Effects” value is listed as 7.9, the “Combination Scores: All Condylar Effects” value is 3.0 and the “Combination Scores: All Tibial Plateau Effects” value is listed as 5.4. Further, in data set [1], the “Combination Scores: All Cartilage Effects” value turned out to be 7.9 and the “Combination Scores: Total Score” value stood at 16.3. Also, in data set [1] (therapeutic dosing regimen), the “All Cartilage Effects, mean score” value is recorded as 7.9+1.5; the “all condylar effects, mean score” value was 3.0 ± 1.0; the “depth of the erosion on the lateral femoral condyle, mean score” value amounted to 1.3 ± 0.4; the “depth of the erosion on the medial femoral condyle, mean score” value was found to be 0.2 ± 0.1. In addition, in data set [1] (therapeutic dosing regimen), the “percent surface area erosion of the lateral femoral condyle, mean score” value amounted to 1.3 ± 0.4 and the “percent surface area erosion of the medial femoral condyle, mean score” value is recorded as 0.3 ± 0.2. For the same compound, the drug stability result in data set [2] (4 months, 1.3 ug/uL) is reported as “around 100%”.
